What is called Ki is a dissociation constant, usually derived from enzyme kinetics or from competition with a known ligand.

Structures are written as SMILES.

These results are taken from patent US6903132B2, “Non-peptide GnRH agents, pharmaceutical compositions and methods for their use” (Agouron Pharmaceuticals, Inc., priority 2002, dated 2005).

Common to all, as to test: Radioligand binding assay: inhibition of binding of 125I-GnRH-A to GnRH receptors (membranes)
In one assay the target is T1, human GnRH receptors (Homo sapiens, UniProt P30968).
T1 construct: expressed in transfected cells; host or cells: HEK 293
T1 sequence (P30968 1-328): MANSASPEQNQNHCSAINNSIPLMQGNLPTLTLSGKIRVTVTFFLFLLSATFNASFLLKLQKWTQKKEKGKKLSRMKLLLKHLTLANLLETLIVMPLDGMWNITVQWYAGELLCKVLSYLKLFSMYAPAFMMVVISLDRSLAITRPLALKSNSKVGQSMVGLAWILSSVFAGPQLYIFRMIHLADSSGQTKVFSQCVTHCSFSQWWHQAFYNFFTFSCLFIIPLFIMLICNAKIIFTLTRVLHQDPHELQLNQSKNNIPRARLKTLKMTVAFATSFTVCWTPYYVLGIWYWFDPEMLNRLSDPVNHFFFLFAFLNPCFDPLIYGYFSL
The settings on record: Human GnRH receptor; competition with 125I-GnRH-A; Ki calculated from IC50 (Cheng et al.). The essentials: (§1)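 Membranes from HEK 293 expressing mouse or human receptor, or rat pituitaries, incubated 1 h at RT with ~0.04–0.06 nM ¹²⁵I-[des-Gly¹⁰,D-Ala⁶]GnRH ethylamide and competitor (0.1–10,000 nM) in HEPES pH 7.4 with MgCl2, EDTA, BSA. Filtration onto PEI-soaked GF/C filters, scintillation counting; Ki from IC50 by Cheng–Prusoff.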

Another assay concerns the target T2, mouse GnRH receptors (Mus musculus, UniProt Q01776).
T2 construct: expressed in transfected cells; host or cells: HEK 293
T2 sequence (Q01776 1-327): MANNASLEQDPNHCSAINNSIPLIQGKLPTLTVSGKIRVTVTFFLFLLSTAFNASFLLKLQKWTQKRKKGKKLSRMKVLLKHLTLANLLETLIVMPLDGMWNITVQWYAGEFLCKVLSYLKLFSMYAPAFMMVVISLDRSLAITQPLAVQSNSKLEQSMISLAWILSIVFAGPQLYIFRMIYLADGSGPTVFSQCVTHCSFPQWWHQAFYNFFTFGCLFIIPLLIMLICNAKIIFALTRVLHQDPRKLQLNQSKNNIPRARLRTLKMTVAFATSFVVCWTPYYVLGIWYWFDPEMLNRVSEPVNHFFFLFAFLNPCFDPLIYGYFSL
Conditions: Mouse GnRH receptor; competition with 125I-GnRH-A; Ki calculated from IC50 (Cheng et al.). The method, boiled down: as §1

The target in the next assay is T3, rat GnRH receptor (Rattus norvegicus, UniProt P30969).
T3 construct: rat pituitaries (Pel Freez Biologicals, Rogers, Ark.) are homogenized in buffer A; tissue Pel Freez Biologicals; host or cells: rat pituitaries
T3 sequence (P30969 1-327): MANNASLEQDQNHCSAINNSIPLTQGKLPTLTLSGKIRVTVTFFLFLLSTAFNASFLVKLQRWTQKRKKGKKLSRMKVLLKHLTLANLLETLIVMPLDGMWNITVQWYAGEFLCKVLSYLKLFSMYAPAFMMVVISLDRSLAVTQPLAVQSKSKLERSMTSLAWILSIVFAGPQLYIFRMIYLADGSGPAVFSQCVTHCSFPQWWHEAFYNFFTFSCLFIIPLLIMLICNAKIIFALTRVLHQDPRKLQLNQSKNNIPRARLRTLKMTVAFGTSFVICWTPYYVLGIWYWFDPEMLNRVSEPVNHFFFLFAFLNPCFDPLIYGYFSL
The settings on record: competition with 125I-GnRH-A, Ki calculated from IC50 (Cheng et al.). The method, boiled down:
as §1

Consider `Cc1cc2c(c(C)c1Oc1ccc(C(=O)NNc3cc(C)c4c(C)nn(C)c4n3)o1)C(C)(C)CCC2(C)C` [Example I9, 5-(1,3,5,5,8,8-Hexamethyl-5,6,7,8-tetrahydro-naphthalen-2-yloxy)-furan-2-carboxylic acid N′-(1,3,4-trimethyl-1H-pyrazolo[3,4-b]pyridin-6-yl)-hydrazide], for which the inhibition constant Ki was 0.0012 µM on human GnRH receptors, 0.0021 µM on mouse GnRH receptors and 0.0038 µM at rat GnRH receptor.
Turning to `COc1c(Oc2ccc(C(=O)NNc3cc(C)c4c(C)nn(C)c4n3)o2)c(C)cc2c1C(C)(C)CCC2` [Example I10, 5-(1-Methoxy-3,8,8-trimethyl-5,6,7,8-tetrahydro-naphthalen-2-yloxy)-furan-2-carboxylic acid N′-(1,3,4-trimethyl-1H-pyrazolo[3,4-b]pyridin-6-yl)-hydrazide], the Ki on human GnRH receptors is 0.146 µM; on mouse GnRH receptors, 0.16 µM; on rat GnRH receptor, 0.23 µM.
In the case of `Cc1cc2c(c(Br)c1Oc1ccc(C(=O)NNc3cc(C)c4c(C)nn(C)c4n3)o1)C(C)(C)CCC2` [Example I11, 5-(1-Bromo-3,8,8-trimethyl-5,6,7,8-tetrahydro-naphthalen-2-yloxy)-furan-2-carboxylic acid N′-(1,3,4-trimethyl-1H-pyrazolo[3,4-b]pyridin-6-yl)-hydrazide], the values for the inhibition constant Ki at human GnRH receptors, at mouse GnRH receptors and on rat GnRH receptor were 0.17 µM, 0.25 µM and 0.79 µM, respectively.
As to `Cc1cc(NNC(=O)c2ccc(Oc3cc(C(C)(C)C)c(Br)cc3Br)o2)nc2c1c(C)nn2C` [Example I12, 5-(2,4-Dibromo-5-tert-butyl-phenoxy)-furan-2-carboxylic acid N′-(1,3,4-trimethyl-1H-pyrazolo[3,4-b]pyridin-6-yl)-hydrazide], the inhibition constant (Ki) was 0.165 µM on human GnRH receptors, 0.26 µM at mouse GnRH receptors and 1.16 µM on rat GnRH receptor.
Consider `Cc1ccc(C(C)(C)C)cc1Oc1ccc(C(=O)NNc2ccc3ccccc3n2)o1` [Example I17, 5-(5-tert-Butyl-2-methyl-phenoxy)-furan-2-carboxylic acid N′-quinolin-2-yl-hydrazide], for which the inhibitory constant (Ki) on human GnRH receptors is 0.07 µM; on mouse GnRH receptors it was 0.043 µM; at rat GnRH receptor it was 0.05 µM.
Turning to `Cc1cc2c(cc1Oc1ccc(C(=O)NNc3cc(C)c4c(C)nn(C)c4n3)o1)C(c1ccccc1)CCC2` (stereo not drawn) [Example I18, 5-(3-Methyl-8-phenyl-5,6,7,8-tetrahydro-naphthalen-2-yloxy)-furan-2-carboxylic acid N′-(1,3,4-trimethyl-1H-pyrazolo[3,4-b]pyridin-6-yl)-hydrazide], the inhibition constant Ki on human GnRH receptors was 0.058 µM; at mouse GnRH receptors, 0.059 µM; at rat GnRH receptor it was 0.154 µM.
`Cc1ccc(C(C)(C)C)cc1Oc1ccc(C(=O)NNc2cc(C)c3c(C)nn(C)c3n2)o1` [Example I19, 5-(5-tert-Butyl-2-methyl-phenoxy)-furan-2-carboxylic acid N′-(1,3,4-trimethyl-1H-pyrazolo[3,4-b]pyridin-6-yl)-hydrazide]: the values for the Ki on human GnRH receptors, on mouse GnRH receptors and on rat GnRH receptor were 0.017 µM, 0.044 µM and 0.039 µM, respectively.
Turning to `Cc1cc2c(cc1Oc1ccc(C(=O)NNc3ccc4ccccc4n3)o1)C(C)(C)CC(C)C2(C)C` (stereo not drawn) [Example I20, 5-(3,5,5,6,8,8-Hexamethyl-5,6,7,8-tetrahydro-naphthalen-2-yloxy)-furan-2-carboxylic acid N′-quinolin-2-yl-hydrazide], the Ki was 0.0038 µM at human GnRH receptors, 0.004 µM at mouse GnRH receptors and 0.0073 µM at rat GnRH receptor.
With `Cc1cc2c(cc1Oc1ccc(C(=O)NNc3cc(C)c4c(C)nn(C)c4n3)o1)C(C)(C)CCC2` [Example I21, N′-(1,3,4-trimethyl-1H-pyrazolo[3,4-b]pyridin-6-y)-5-[(3,8,8-trimethyl-5,6,7,8-tetrahydro-2-naphthalenyl)oxy]-2-furohydrazide], the Ki on human GnRH receptors was 0.0042 µM; at mouse GnRH receptors, 0.005 µM; at rat GnRH receptor, 0.022 µM.
Regarding `Cc1cc(Cl)c(C(C)C)cc1Oc1ccc(C(=O)NNc2cc(C)c3c(C)nn(C)c3n2)o1` [Example I23, 5-(4-Chloro-5-isopropyl-2-methyl-phenoxy)-furan-2-carboxylic acid N′-(1,3,4-trimethyl-1H-pyrazolo[3,4-b]pyridin-6-yl)-hydrazide], the figures for the Ki on human GnRH receptors, at mouse GnRH receptors and on rat GnRH receptor were 0.03 µM, 0.022 µM and 0.37 µM, respectively.
The matching figures for `COc1cc2c(c(C)c1Oc1ccc(C(=O)NNc3cc(C)c4c(C)nn(C)c4n3)o1)C(C)(C)CCC2(C)C` [Example I25, 5-(3-Methoxy-1,5,5,8,8-pentamethyl-5,6,7,8-tetrahydro-naphthalen-2-yloxy)-furan-2-carboxylic acid N′-(1,3,4-trimethyl-1H-pyrazolo[3,4-b]pyridin-6-yl)-hydrazide]: 0.031 µM, 0.038 µM and 0.059 µM.
Take `Cc1cc(NNC(=O)c2ccc(Oc3cc4c(cc3Cl)NCCC4(C)C)o2)nc2c1c(C)nn2C` [Example I26, 5-(7-Chloro-4,4-dimethyl-1,2,3,4-tetrahydro-quinolin-6-yloxy)-furan-2-carboxylic acid N′-(1,3,4-trimethyl-1H-pyrazolo[3,4-b]pyridin-6-yl)-hydrazide]: the Ki on human GnRH receptors was 0.0083 µM; on mouse GnRH receptors, 0.014 µM; at rat GnRH receptor, 0.025 µM.
With `Cc1cc(NNC(=O)c2ccc(Oc3cc4c(cc3Cl)N(C)CCC4(C)C)o2)nc2c1c(C)nn2C` [Example I27, 5-(7-Chloro-1,4,4-trimethyl-1,2,3,4-tetrahydro-quinolin-6-yloxy)-furan-2-carboxylic acid N′-(1,3,4-trimethyl-1H-pyrazolo[3,4-b]pyridin-6-yl)-hydrazide], the inhibition constant Ki at human GnRH receptors was 0.101 µM; at mouse GnRH receptors, 0.122 µM; on rat GnRH receptor, 0.37 µM.
Consider `COc1c(Oc2ccc(C(=O)NNc3cc(C)c4c(C)nn(C)c4n3)o2)c(C)cc2c1C(C)(C)CCC2(C)C` [Example I28, 5-(1-Methoxy-3,5,5,8,8-pentamethyl-5,6,7,8-tetrahydro-naphthalen-2-yloxy)-furan-2-carboxylic acid N′-(1,3,4-trimethyl-1H-pyrazolo[3,4-b]pyridin-6-yl)-hydrazide], for which the Ki on human GnRH receptors was 0.0003 µM; at mouse GnRH receptors, 0.0026 µM; at rat GnRH receptor, 0.0042 µM.
Regarding `Cc1cc2c(c(O)c1Oc1ccc(C(=O)NNc3cc(C)c4c(C)nn(C)c4n3)o1)C(C)(C)CCC2(C)C` [Example I29, 5-(1-Hydroxy-3,5,5,8,8-pentamethyl-5,6,7,8-tetrahydro-naphthalen-2-yloxy)-furan-2-carboxylic acid N′-(1,3,4-trimethyl-1H-pyrazolo[3,4-b]pyridin-6-yl)-hydrazide], the Ki at human GnRH receptors is 0.049 µM; on mouse GnRH receptors, 0.058 µM; at rat GnRH receptor it was 0.064 µM.
Consider `Cc1cc(C)c(C)c(Cc2ccc(C(=O)NNc3cc(C)c4c(C)nn(C)c4n3)o2)c1C` [Example J12, 5-(2,3,5,6-Tetramethylbenzyl)-N′-(1,3,4-trimethyl-1H-pyrazolo[3,4-b]pyridin-6-yl)-2-furohydrazide], for which the inhibitory constant (Ki) at human GnRH receptors was 0.26 µM; on mouse GnRH receptors, 0.85 µM; at rat GnRH receptor, 1.2 µM.
On to `Cc1cc2c(cc1Cc1ccc(C(=O)NNc3cc(C)c4c(C)nn(C)c4n3)o1)C(C)(C)CC2(C)C` [Example J15, 5-[(1,1,3,3,6-pentamethyl-2,3-dihydro-1H-inden-5-yl)methyl]-N-(1,3,4-trimethyl-1H-pyrazdo[3,4-b]Pyridin-6-yl)-2-furohydrazide], for which the results for the Ki on human GnRH receptors, at mouse GnRH receptors and on rat GnRH receptor were 0.0009 µM, 0.0033 µM and 0.002 µM, respectively.
On to `Cc1ccc(C2CCCCC2)cc1Cc1ccc(C(=O)NNc2cc(C)c3c(C)nn(C)c3n2)o1` [Example J16, 5-(5-cyclohexyl-2-methylbenzyl)-N′-(1,3,4-trimethyl-1H-pyrazolo[3,4-b]pyridin-6-yl)-2-furohydrazide], for which the Ki on human GnRH receptors was 0.097 µM; at mouse GnRH receptors it was 0.233 µM; on rat GnRH receptor it was 0.122 µM.
